Data taken from paper PMC10108010, “Fluorogenic Granzyme A Substrates Enable Real‐Time Imaging of Adaptive Immune Cell Activity” (Angewandte Chemie (International Ed. in English), 2023).
Where a SMILES comes first, the peptide text is derived from it. The star is where a group is joined. NH(4-Me-phenyl) = Cc1ccc(N*)cc1; AMC = Cc1cc(=O)oc2cc(N*)ccc12; Cbz = O=C(OCc1ccccc1)*; X1 = Cc1ccc(S*)cc1; X2 = Cc1ccc(O*)cc1

What was measured:
[1] = Chemical stability in aqueous buffers by HPLC-MS (no enzyme); type: physicochemical; settings: for chemical stability at other pH (in words): basic and acid media
Procedure: Figure 2 Solid‐phase peptide synthesis (SPPS) of the sequence Ac‐IGNR‐OH (compound 1) and corresponding analogues containing spacers with different connectivities. The synthesis of compounds 1–4 is described in the Supporting Information. […] TEXT PRINTED IN THE PICTURE: 2 (ester): pH 4: < 5%; pH 7: < 5%; pH 10: < 5% | 3 (thioester): pH 4: 70%; pH 7: < 5%; pH 10: < 5% | 4 (amide): pH 4: > 95%; pH 7: > 95%; pH 10: > 95%
First, we synthesized a large batch (>400 mg) of Ac‐IGNR‐OH using standard protocols for the solid‐phase synthesis of fluorescent peptides[20] in polystyrene resin derivatized with a 2‐chlorotritylchloride linker (PS‐CTC). Next, we coupled the tetrapeptide Ac‐IGNR‐OH (compound 1, Figure 2) to different aryl groups to generate the isosteric ester, thioester and amide analogues (compounds 2, 3 and 4 respectively, Figure 2). After isolation of all compounds by semi‐preparative HPLC with purities >95 %, we analyzed their chemical stability in aqueous media in the absence of hGzmA. […] We also tested their chemical integrity at different pH values because GzmA can be stored in slightly acidic cytotoxic granules inside CTLs.[21]

hGzmA = biological target: T1, hGzmA (Homo sapiens, UniProt P12544); experiment: Inhibition by 3,4-dichloroisocoumarin of the fluorescence of compound 9 with hGzmA; type: biochemical; settings: 3,4-dichloroisocoumarin 100 μM, compound 9 20 μM, hGzmA 20 nM, Tris buffer (pH 8)
T1 construct: in the absence or presence of active recombinant hGzmA
T1 sequence (P12544 29-262): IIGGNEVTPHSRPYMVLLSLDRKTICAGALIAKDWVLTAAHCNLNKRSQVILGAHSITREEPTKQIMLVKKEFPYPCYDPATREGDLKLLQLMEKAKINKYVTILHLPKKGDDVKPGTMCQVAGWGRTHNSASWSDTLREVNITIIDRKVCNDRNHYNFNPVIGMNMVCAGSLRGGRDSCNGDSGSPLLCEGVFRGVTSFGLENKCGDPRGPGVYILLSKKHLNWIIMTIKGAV

[2] = test system: active GzmA secreted by NK-92 cells; experiment: Detection of active GzmA in supernatants of stimulated NK-92 cells; type: cell-based, human; settings: supernatants of stimulated NK-92 cells + compound 9
Excerpt: Encouraged by the high reactivity of compound 9, we evaluated its potential application to detect active GzmA secreted by immune cells. NK cell‐based therapies are regarded as potential anticancer treatments due to their ability to secrete granzymes to the extracellular space and cause cytotoxicity in cancer cells.[24] […] To test the utility of compound 9 to measure active GzmA in cell supernatants, we performed degranulation assays in human NK‐92 cells (e.g., a patient‐derived cell line that expresses higher levels of GzmA than healthy NK cells)[25] and also tested GzmA‐negative cells (e.g., HaCaT keratinocytes, Figure S8). NK‐92 cells were stimulated with […] and ionomycin (Figure 5).[26] Cell supernatants were collected and incubated with compound 9 for 1 h, followed by spectroscopic measurements. […] Previous reports indicate that granzyme activity can be detected inside NK‐92 cells[[11b]] and that granzymes can be found within activated immune cells due to intracellular granular leakage,[27] even though granzyme activity is known to be reduced in acidic granules. To study this observation, we performed Z‐stack live‐cell confocal microscopy in NK‐92 cells after incubation with compound 9.
(§1) 5.0) prior to the enzyme assays.
(§2) All the tubes were incubated
(§3) NK- 92 cell inhibition and imaging. […]
(§4) Microsystems) and qualitatively analysed using Fiji.

NK-92 cells = experiment: Live-cell confocal microscopy of NK-92 cells; type: cell-based, human; settings: 3,4-dichloroisocoumarin 5 μM, 2 h prior to labeling with compound 9 (5 μM, 1 h)
Procedure: Figure S9. Brightfield and fluorescence confocal microscopy merged images of live NK-92 cells upon incubation with compound 9. Representative microscopy images from 3 independent experiments of live NK-92 cells upon incubation with […]
dichloroisocoumarin (5 µM) was used as a GzmA inhibitor for 2 h prior to labeling.
as §1, §2, §3, §4

[3] = Emission wavelength / spectral properties; type: physicochemical; settings: comparison of compound 9 and Z-FR-AMC
[4] = Tris buffer (pH 7.4), absence of hGzmA, HPLC-MS
[5] = pH 4, aqueous buffer, 2 h at 37 °C, HPLC-MS
[6] = pH 7, aqueous buffer, 2 h at 37 °C, HPLC-MS
[7] = pH 10, aqueous buffer, 2 h at 37 °C, HPLC-MS

Molecule | chemical stability (in words) [1, 4] | stability (% by HPLC-MS) [1, 6] | stability (% by HPLC-MS) [1, 7] | chemical stability at other pH (in words) ([1]; HPLC-MS, 2 h at 37 °C) | stability (% by HPLC-MS) [1, 5] | also measured
O=c1oc(Cl)c(Cl)c2ccccc12 [3,4‐dichloroisocoumarin] |  |  |  |  |  | decrease of the fluorescence signal (hGzmA): > 90%; effect of inhibitor on supernatant fluorescence (in words) [2]: blocked; effect of inhibitor on intracellular fluorescence (in words) (NK-92 cells): reduced
Cbz-Phe-Arg-{AMC} |  |  |  |  |  | emission wavelength [3]: 445 nm
CC[C@H](C)[C@H](NC(C)=O)C(=O)NCC(=O)N[C@@H](CC(N)=O)C(=O)N[C@@H](CCCNC(=N)N)C(=O)Nc1ccc(C)cc1 [compound 4] (Ac-IGNR-{NH(4-Me-phenyl)}) | fully stable | > 95% | > 95% | stable in basic and acid media | > 95% | purity after incubation ([1]; Tris buffer (pH 7.4), absence of hGzmA): > 95%

More lines, main results first:

chemical stability (in words) [1, 4] | stability (% by HPLC-MS) [1, 6] | stability (% by HPLC-MS) [1, 7] | Molecule | chemical stability at other pH (in words) ([1]; HPLC-MS, 2 h at 37 °C) | stability (% by HPLC-MS) [1, 5] | also measured
completely hydrolyzed | < 5% | < 5% | CC[C@H](C)[C@H](NC(C)=O)C(=O)NCC(=O)N[C@@H](CC(N)=O)C(=O)N[C@@H](CCCNC(=N)N)C(=O)Sc1ccc(C)cc1 [compound 3] (Ac-IGNR-X1) | more stable than the carboxylic ester analogue 2 at acidic pH |  | remaining at 2 h [1, 5]: 70%
completely hydrolyzed | < 5% | < 5% | CC[C@H](C)[C@H](NC(C)=O)C(=O)NCC(=O)N[C@@H](CC(N)=O)C(=O)N[C@@H](CCCNC(=N)N)C(=O)Oc1ccc(C)cc1 [compound 2] (Ac-IGNR-X2) |  | < 5% | 
